Entries after “also recorded” stand apart in the source; their conditions may differ.
Key:
[1] = system: Enterococcus faecalis ATCC 33186; assay: Bacterial growth inhibition screen (A620); type: cell-based; conditions: overnight 35° C.; for inhibition at 50 µg/mL: ATCC33186, compound 50 μg/ml, read-out: inhibition of growth of E. faecalis
Procedure: (§1) Compounds with high similarity scores, or at the intersection of the results of searches using a number of different approaches, and available from the NCI or Molecular Science libraries were obtained and screened for inhibition of growth of E. coli ATCC 35218, Klebsiella pneumoniae ATCC 13885, Pseudomonas aeruginosa ATCC 27853, Staphylococcus aureus ATCC 25923 and Enterococcus faecalis ATCC 33186 as follows. Compounds were supplied dissolved in DMSO at 1 mg/ml in a 96 well tray format. Six corresponding slave plates were prepared by adding 85 μl of sterile water, and 100 μl of two times Muller Hinton broth. Dissolved compounds (5 μl) from the master plate was added to the corresponding well in slave plates giving a final concentration of 50 μg/ml.
(§2) Plates were then transferred to a PC2 Laboratory for inoculation with selected bacterial strains. The strains are freshly grown and diluted in normal saline to 0.5 McFarland Standard (NCCLS Performance standard for Dilution Antimicrobial Susceptibility Testing M7-A4 January 1997). This solution was further diluted 1:10 in normal saline to form the bacterial inoculation culture. 10 μl was used to inoculate each well. Plates were covered and placed in a 35° C. incubator over night before A620 was determined. Tetracycline was used as a standard antimicrobial compound.

[2] = system: Staphylococcus aureus ATCC 25923; assay: Bacterial growth inhibition screen (A620); type: cell-based; conditions: overnight 35° C.; for inhibition at 50 µg/mL: ATCC25923, compound 50 μg/ml, read-out: inhibition of growth of S. aureus
Procedure: as §1, §2

[3] = target: binding of E. coli δ to E. coli β (Escherichia coli, UniProt P0A988); assay: biochemical; conditions: for IC50: IC50 δ-binding, Table 21
Chain of binding of E. coli δ to E. coli β (P0A988 whole entry): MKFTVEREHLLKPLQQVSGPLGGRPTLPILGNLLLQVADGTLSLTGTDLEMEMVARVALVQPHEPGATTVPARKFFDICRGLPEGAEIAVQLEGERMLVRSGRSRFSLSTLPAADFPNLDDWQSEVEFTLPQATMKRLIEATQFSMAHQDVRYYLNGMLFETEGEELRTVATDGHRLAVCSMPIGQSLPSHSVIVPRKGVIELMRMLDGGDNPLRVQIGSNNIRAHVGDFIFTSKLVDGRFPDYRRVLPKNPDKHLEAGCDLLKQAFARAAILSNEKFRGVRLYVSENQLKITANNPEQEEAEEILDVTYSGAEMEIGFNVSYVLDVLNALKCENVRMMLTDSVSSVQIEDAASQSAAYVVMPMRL

[4] = target: T1, binding of E. coli α to E. coli β (Escherichia coli, UniProt P0A988); assay: biochemical; conditions: Table 21; Molsci (CMS) compounds, buffer BB37 (10 mM MnCl2); read-out: IC50 α-binding
T1 construct: made in house
T1 sequence (P0A988 whole entry): as above
Procedure: Recombinantly expressed wild type E. coli α subunit was purified and coated onto 96 well microtitre plates (Falcon flexible plates, Becton Dickinson) at 20 μg/ml in 100 mM Na2CO3, pH9.5 (50 μl/well, 4° C. overnight or 2 h, RT (RT). The plates were washed in WB3 (20 mM Tris (pH 7.5), 0.1 mM EDTA containing 0.05% v/v Tween 20). This buffer was used in all wash steps through out the assay. The plates were then blocked with “blotto” (5% skim milk powder in WB3, 100 μl/well, RT) until required. Immediately before use the plates were washed.
The purified synthetic peptides and β subunit were diluted in BB14 (20 mM Tris, pH 7.5, 10 mM MgCl2, 0.1 mM EDTA). Purified synthetic peptides with concentrations of 9.3-300 and 1000 μg/ml were allowed to complex with purified wild type β subunit (5 μg/ml) in a 96 well microtitre plate (Sarsted, Adelaide, Australia) pre-treated with “blotto” (30 min, RT). The reaction volume was 120 μl. The β subunit also was incubated in the absence of peptide or in the presence of the α subunit at 76.5 (μg/ml in BB14. All samples were incubated for 1 h (RT). Two 50 μl samples were transferred from each well to a corresponding well of the washed and “blocked” α subunit coated plates, and further incubated for 30 min (RT).
The plates were washed and treated with rabbit serum raised to the β subunit. The anti-serum was diluted 1:1000 in WB3 containing 10% “blotto”, dispensed at 50 μl/well and incubated for 12 min (RT). The plates were washed again and treated with sheep anti-rabbit Ig-HRP conjugate (Silenus, Melbourne, Australia) diluted 1:1000 in WB3 containing 10% “blotto” (50 μl/well). The plate was incubated for 12 min (RT). After a final washing step, 1 mM 2,2′-azino-bis (3-ethylbenzthiazoline-6-sulfonic acid) was added (110 μl/well). Colour development was assessed at 405 nm using a plate reader (Multiskan Ascent, Labsystems, Sweden).
For the CMS compounds in the of α:β assays, buffer BB37 replaced buffer BB14. Buffer BB37 contains 10 mM MnCl2 instead of the 10 mM MgCl2 used in BB14. The buffer conditions were changed to improve the reproducibility and sensitivity of the α:β binding assay.
Compounds from the CMS library were dissolved in DMSO at 1 mg/ml in a 96 well tray format. A corresponding slave plate was prepared by adding 115 μl of BB37. Dissolved compounds (5 μl) from the master plate was added to the corresponding well in slave plates giving a final concentration of 41.7 μg/ml.
Compounds were assayed for inhibition of the binding of E. coli α to E. coli β as described in Example 13.
Peptides were assayed for inhibition of the binding of E. coli α to E. coli β as described in Example 6 with the exception that buffer BB37 replaced buffer BB14 in the alpha:beta binding assay. As noted above, BB37 contains 10 mM MnCl2 instead of 10 mM MgCl2 used in BB14. Again, the change in buffer conditions was made to improve the reproducibility and sensitivity of the α:β binding assay.

[5] = system: Pseudomonas aeruginosa ATCC 27853; assay: Bacterial growth inhibition screen (A620); type: cell-based; conditions: ATCC27853, test conc 35 μg/ml, overnight 35° C., read-out: percent growth inhibition P. aeruginosa
Procedure: as §1, §2

[6] = system: E. coli ATCC 35218; assay: Bacterial growth inhibition screen (A620); type: cell-based; conditions: Escherichia coli, ATCC35218, test conc 35 μg/ml, overnight 35° C., read-out: percent growth inhibition E. coli
Procedure: as §1, §2

[7] = system: Klebsiella pneumoniae ATCC 13885; assay: Bacterial growth inhibition screen (A620); type: cell-based; conditions: ATCC13885, test conc 35 μg/ml, overnight 35° C., read-out: percent growth inhibition K. pneumoniae
Procedure: as §1, §2

Structure (SMILES)	inhibition at 50 µg/mL [1]	inhibition at 50 µg/mL [2]	IC50 [3]	inhibition of the binding of δ to β ([3]; plate binding assay as in Example 6)	IC50 [4]	inhibition at 35 µg/mL [5]	inhibition at 35 µg/mL ([1]; ATCC33186, test conc 35 μg/ml, A620, read-out: percent growth inhibition E. faecalis)	inhibition at 35 µg/mL ([2]; ATCC25923, test conc 35 μg/ml, A620, read-out: percent growth inhibition S. aureus)	inhibition at 35 µg/mL [6]	inhibition at 35 µg/mL [7]
CCC/C(=N\OC/C(Cl)=C/c1ccc(Cl)cc1)C1C(=O)CC(C)(C)CC1=O [AOC-07877]	> 50%	> 50%	90 µM	significantly inhibited; also recorded: significant inhibitory activity	270 µM					
CCC/C(=N\OC/C(Cl)=C/c1ccc(Cl)cc1)C1C(=O)CC(C)(C)CC1=O [Peptide 07877]						3.9%	59.6%	84.7%	17.6%	8.3%
CCC/C(=N\OC/C(C)=C(\O)c1ccc(C)cc1)C1C(=O)CC(CC)(CC)CC1=O [AOC-08944]	> 50%	> 50%	> 300 µM		> 300 µM					

Reference: patent publication US20040132121A1, “Method of identifying antibacterial compounds” (priority 2000, published 2004)
